Reference: patent US20050197366A1, “Antimicrobial composition containing N-(n-butyl)-1,2-benzisothiazolin-3-one” (priority 2004, published 2005)
“And” between values parts separate entries of the source, which are not always exact repeats. Identical values can stand only once. Like-named read-outs stand apart in the source and are kept apart here. One block for each molecule: values may come before it.

Assays:
Assay type in all cases: cell-based
[1] = tested on: Aspergillus niger (ATCC#16404); test: Microtiter plate synergy test (MIC, Kull synergy index), fungi, Potato Dextrose Broth; settings: for Alone ppm (MIC of compound acting alone): A. niger, ppm active ingredient
Source text: (§1) One measure of synergism is the industrially accepted method described by Kull, F. C.; Eisman, P. C.; Sylwestrowicz, H. D. and Mayer, R. L., in Applied Microbiology 9:538-541 (1961), using the ratio determined by the formula: Qa/QA+Qb/QB=Synergy Index (“SI”) wherein: • QA=concentration of compound A (first component) in ppm, acting alone, which produced an end point (MIC of Compound A). • Qa=concentration of compound A in ppm, in the mixture, which produced an end point. • QB=concentration of compound B (second component) in ppm, acting alone, which produced an end point (MIC of Compound B). • Qb=concentration of compound B in ppm, in the mixture, which produced an end point.
(§2) When the sum of Qa/QA and Qb/QB is greater than one, antagonism is indicated. […] The lower the SI, the greater the synergy shown by that particular mixture. The minimum inhibitory concentration (MIC) of an antimicrobial compound is the lowest concentration tested under a specific set of conditions that prevents the growth of added microorganisms.
(§3) Synergy tests were conducted using standard microtiter plate assays (12 columns, 1-12×8 rows, A-H) with media designed for optimal growth of the test microorganism. Full-strength nutrient medium, Trypticase Soy Broth, TSB, for bacteria, or Potato Dextrose Broth, PDB, for fungi, was used for testing. Growth medium (160 μL) was dispensed into columns 2-6 and 8-12 of the plate. A total of 40 plates were made with each growth medium. Stock solutions of N-(n-butyl)-1,2-benzisothiazolin-3-one were made from DENSIL DG 20 (20% active ingredient (AI), n-BBIT, in propylene glycol, obtained from Avecia Inc.) at the following concentrations based on total product weight: 5000 ppm (0.2 g DENSIL DG 20 in 40 g growth medium), 4000 ppm, 3500 ppm, 3000 ppm, 2500 ppm, 2000 ppm, 1500 ppm, 1000 ppm and 900 ppm. Isothiazolone stock solutions were made as follows. KATHON LX (1.97% active, 3:1 CMI/MI mixture): active ingredient concentrations at 144 ppm, 36 ppm, 10 ppm, 5 ppm and 1 ppm. ROZONE 2000 (20% active, DCOIT): active ingredient concentrations at 144 ppm, 36 ppm, 10 ppm, 5 ppm and 1 ppm. ROCIMA 550 (9.5% active, MI): active ingredient concentrations at 4800 ppm, 2400 ppm, 900 ppm, 360 ppm and 180 ppm. DENSIL DG 20 stock solution was dispensed in each well of columns 1 and 7 of a microtiter plate, as described below:
(§4) 5000 ppm of stock solution was tested against Ps. aeruginosa in 1A, 7A. The 900 ppm stock was not tested against this organism. A 40 μL aliquot was transferred from each well in column 1 to column 2 and serially diluted to column 5; the aliquots from column 5 was discarded. Column 6 was the control. The same procedure was repeated from column 7 to column 11, and the aliquots from column 11 discarded. At the end of this procedure, each well should contain 160 μL of solution.
(§5) The isothiazolone stock solutions were added to various columns so that each well contained the desired concentration of the isothiazolone and the DENSIL DG20. The DENSIL DG20 alone as well as the isothiazolone alone were included as controls. An example of the combination of 11 ppm KATHON LX 1.5% (on an active ingredient basis) with DENSIL DG20 is shown below:
(§6) DENSIL DG20 alone (columns 1-5); untreated control (column 6); combination evaluations (columns 7-11); KATHON LX 1.5% control (column 12). Inoculum (10 μL) was dispensed into each well from column 1-12. […] The MIC of each biocide was determined from the plates, and then SI was determined.
(§7) The following Tables summarize data for combinations of n-BBIT with other isothiazolones (ITA), along with their synergy index (SI) and the ratio of n-BBIT:ITA. All amounts of n-BBIT and ITA are reported as ppm of active ingredient. Results for testing against various organisms are grouped with results against fungi (F) reported together, and then results against bacteria (B).
(§8) Typical contact time for bacteria is 24-48 hours and 3-7 days for fungi. […]

[2] = tested on: Fusarium moniliforme (ATCC#58929); test: as above; settings: for MIC: Fusarium verticillioides, read-out: Alone ppm (MIC of compound acting alone)
Source text: as §1, §2, §3, §4, §5, §6, §7, §8

[3] = tested on: Klebsiella pneumoniae (ATCC#13583); test: Microtiter plate synergy test (MIC, Kull synergy index), bacteria, Trypticase Soy Broth; settings: for MIC: Klebsiella pneumoniae, read-out: Alone ppm (MIC of compound acting alone)
Source text: as §1, §2, §3, §4, §5, §6, §7, §8

[4] = tested on: Pseudomonas aeruginosa (ATCC#15442); test: as above; settings: for MIC: Pseudomonas aeruginosa, read-out: Alone ppm (MIC of compound acting alone); for Alone ppm (MIC of compound acting alone): Ps. aeruginosa, ppm active ingredient
Source text: as §1, §2, §3, §4, §5, §6, §7, §8

[5] = tested on: Gliocladium viridie (Tricoderma viridie)(isolate); test: Microtiter plate synergy test (MIC, Kull synergy index), fungi, Potato Dextrose Broth; settings: for MIC: read-out: Alone ppm (MIC of compound acting alone); for Alone ppm (MIC of compound acting alone): G. viridie, ppm active ingredient
Source text: as §1, §2, §3, §4, §5
(§9) DENSIL DG20 alone (columns 1-5); untreated control (column 6); combination evaluations (columns 7-11); KATHON LX 1.5% control (column 12). Inoculum (10 μL) was dispensed into each well from column 1-12. The plates were incubated (bacterial plates at 48 hrs., 30° C.; fungal plates at 7 days, 25° C.). The MIC of each biocide was determined from the plates, and then SI was determined.
as §7, with “(B). […]” for “(B).”

[6] = tested on: Candida albicans (ATCC#10231); test: as above
Source text: as §1, §2, §3, §4, §5, §9
as §7, with “(B). […]” for “(B).”

[7] = tested on: Escherichia coli (ATCC#8739); test: Microtiter plate synergy test (MIC, Kull synergy index), bacteria, Trypticase Soy Broth; settings: E. coli, ppm active ingredient
Source text: as §1, §2, §3
(§10) 5000 ppm of stock solution was tested against Ps. aeruginosa in 1A, 7A. The 900 ppm stock was not tested against this organism. […]
(§11) DENSIL DG20 alone (columns 1-5); untreated control (column 6); combination evaluations (columns 7-11); KATHON LX 1.5% control (column 12). […] The MIC of each biocide was determined from the plates, and then SI was determined. […]

[8] = tested on: Proteus mirabilis (ATCC#unknown); test: as above; settings: P. mirabilis, contact time 48 hr, ppm active ingredient
Source text: as §1, §2, §3, §10, §11

[9] = tested on: Staphylococcus aureus (ATCC#6538); test: as above; settings: S. aureus, ppm active ingredient; for MIC: Staphylococcus aureus, ATCC6538, read-out: Alone ppm (MIC of compound acting alone)
Source text: as §1, §2, §3, §4, §5, §6, §7, §8

SMILES: Cn1sccc1=O [MI, 2-methyl-4-isothiazolin-3-one]
MIC ([1]; Aspergillus niger, ATCC16404, 168 h, read-out: Alone ppm (MIC of compound acting alone)): 200 µg/mL | MIC ([2]; ATCC58929, 72 h): 200 µg/mL | MIC ([2]; ATCC58929, 168 h): 200 µg/mL | MIC ([3]; ATCC13583, 24 h): 25 µg/mL | MIC ([4]; ATCC15442, 24 h): 20 µg/mL | MIC ([4]; ATCC15442, 48 h): 25 µg/mL | MIC ([5]; 72 h): 107 µg/mL | MIC ([5]; 168 h): 133 µg/mL | MIC ([6]; Candida albicans, ATCC10231, 168 h, read-out: Alone ppm (MIC of compound acting alone)): 25 µg/mL

SMILES: CCCCn1sc2ccccc2c1=O [n-BBIT, N-(n-butyl)-1,2-benzisothiazolin-3-one]
Alone ppm (MIC of compound acting alone) ([1]; contact time 3 days): 28 ppm | Alone ppm (MIC of compound acting alone) ([1]; contact time 7 days): 53 ppm | Alone ppm (MIC of compound acting alone) ([2]; F. moniliforme, contact time 3 days, ppm active ingredient): 267 ppm and 444 ppm | Alone ppm (MIC of compound acting alone) ([2]; F. moniliforme, contact time 7 days, ppm active ingredient): 533 ppm and 356 ppm and 267 ppm | Alone ppm (MIC of compound acting alone) ([7]; contact time 24 hr): 356 ppm | Alone ppm (MIC of compound acting alone) ([7]; contact time 48 hr): 533 ppm | Alone ppm (MIC of compound acting alone) [8]: 18 ppm | Alone ppm (MIC of compound acting alone) ([3]; K. pneumoniae, contact time 24 hr, ppm active ingredient): 267 ppm | Alone ppm (MIC of compound acting alone) ([3]; K. pneumoniae, contact time 48 hr, ppm active ingredient): 267 ppm | Alone ppm (MIC of compound acting alone) ([9]; contact time 24 hr): 36 ppm | Alone ppm (MIC of compound acting alone) ([9]; contact time 48 hr): 53 ppm | Alone ppm (MIC of compound acting alone) ([4]; contact time 24 hr): 711 ppm | Alone ppm (MIC of compound acting alone) ([4]; contact time 48 hr): 711 ppm | Alone ppm (MIC of compound acting alone) ([5]; contact time 3 days): 711 ppm | Alone ppm (MIC of compound acting alone) ([5]; contact time 7 days): >711 ppm | Alone ppm (MIC of compound acting alone) ([6]; C. albicans, contact time 7 days, ppm active ingredient): 124 ppm

MIC ([2]; ATCC58929, 72 h, F. moniliforme, contact time 3 days, ppm active ingredient): 0.28 µg/mL | MIC ([2]; ATCC58929, 168 h, F. moniliforme, contact time 7 days, ppm active ingredient): 1 µg/mL | MIC ([8]; Proteus mirabilis, read-out: Alone ppm (MIC of compound acting alone)): 5 µg/mL | MIC ([3]; ATCC13583, K. pneumoniae, contact time 48 hr, ppm active ingredient): 11 µg/mL | MIC ([9]; contact time 24 hr): 6 µg/mL | MIC ([9]; contact time 48 hr): 9 µg/mL
SMILES: CCCCCCCCn1sc(Cl)c(Cl)c1=O [DCOIT, 4,5-dichloro-2-n-octyl-4-isothiazolin-3-one]
